Among the data in US11078170B2 (Assembly Biosciences, Inc., priority 2017, dated 2021) are EC50 values, retold here.

Where only a bound is given, the exact number is not on record here.

The term EC50 denotes the midpoint of the concentration-response curve.

This experiment relates to HBV viral production from HepAD38 cells. Briefly: Activity of test compounds on viral production from HepAD38 cells (viral load by qPCR of HBV core sequence in supernatant). It counts as cell-based. The following applies: Hepatitis B virus, 120 h, 5 days incubation, HBV DNA in supernatant by qPCR, top concentration 10 μM, read-out: Viral Load EC50 Activity range. An outline of the steps: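 HepAD38 cells, 50,000/well in tetracycline-free 2% FBS medium, treated 5 days at 37° C. with compound from 10 μM top concentration. HBV DNA in supernatant quantified by TaqMan qPCR of core sequence against DNA standards, relative to DMSO wells; CellTiter-Glo viability read in parallel. EC50/CC50 from four-parameter logistic fit.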
As to `CN1[C@H](C(=O)Nc2ccc(F)c(C#N)c2)C[C@H](c2cccs2)NS1(=O)=O` [HBV-CSU-045-ISO-I, Cis-N-(3-cyano-4-fluorophenyl)-2-methyl-5-(thiophen-2-yl)-1,2,6-thiadiazinane-3-carboxamide 1,1-dioxide], the EC50 was less than 1 µM.
Regarding `C#CCN1[C@@H](C(=O)Nc2ccc(F)c(Cl)c2)C[C@@H](c2nccs2)NS1(=O)=O` [HBV-CSU-089-ISO-II, Cis-N-(3-chloro-4-fluorophenyl)-2-(prop-2-yn-1-yl)-5-(thiazol-2-yl)-1,2,6-thiadiazinane-3-carboxamide 1,1-dioxide], the concentration for a half-maximal effect (EC50) is greater than 5 µM.
Under `Cc1ncc([C@H]2C[C@@H](C(=O)Nc3ccc(F)c(Cl)c3)N(C)S(=O)(=O)N2)s1` [HBV-CSU-224-ISO-I, Cis-N-(3-Chloro-4-fluorophenyl)-2-methyl-5-(2-methylthiazol-5-yl)-1,2,6-thiadiazinane-3-carboxamide 1,1-dioxide] stands less than 1 µM.
Under `CN1[C@@H](C(=O)Nc2ccc(F)c(Cl)c2)C[C@@H](c2ncc(-c3ccc(F)cn3)s2)NS1(=O)=O` [HBV-CSU-252-ISO-II, Cis-N-(3-Chloro-4-fluorophenyl)-5-(5-(5-fluoropyridin-2-yl)thiazol-2-yl)-2-methyl-1,2,6-thiadiazinane-3-carboxamide 1,1-dioxide] stands greater than 5 µM; under `CN1C(C(=O)Nc2ccc(F)c(Cl)c2)CC(c2ccc(-c3cnco3)s2)NS1(=O)=O` (racemic) [HBV-CSU-269, Cis-N-(3-Chloro-4-fluorophenyl)-2-methyl-5-(5-(oxazol-5-yl)thiophen-2-yl)-1,2,6-thiadiazinane-3-carboxamide 1,1-dioxide], less than 1 µM; under `CCOCCN1C(C(=O)Nc2ccc(F)c(Cl)c2)CC(c2nccs2)NS1(=O)=O` (racemic) [HBV-CSU-142, Cis-N-(3-Chloro-4-fluorophenyl)-2-(2-ethoxyethyl)-5-(thiazol-2-yl)-1,2,6-thiadiazinane-3-carboxamide 1,1-dioxide], less than 1 µM.
As for `CN1[C@@H](C(=O)Nc2ccc(F)c(Cl)c2)C[C@@H](c2ccc(-c3cnn(C(F)(F)F)c3)s2)NS1(=O)=O` [HBV-CSU-321-ISO-II, Cis-N-(3-Chloro-4-fluorophenyl)-2-methyl-5-(5-(1-(trifluoromethyl)-1H-pyrazol-4-yl)thiophen-2-yl)-1,2,6-thiadiazinane-3-carboxamide 1,1-dioxide], the EC50 is greater than 5 µM.
As to `CN1[C@@H](C(=O)Nc2ccc(F)c(Cl)c2)C[C@@H](c2cc(-c3ccc(F)cc3)cs2)NS1(=O)=O` [HBV-CSU-239-ISO-II], the EC50 was in the range of 1 to 5 µM.
The result for `[2H]C1[C@]([2H])(C(=O)Nc2ccc(F)c(Cl)c2)N(C)S(=O)(=O)N[C@]1([2H])c1ccc(-c2cn(C)cn2)s1` (stereo in doubt) [HBV-CSU-375-ISO-II, Cis-N-(3-Chloro-4-fluorophenyl)-2-methyl-5-(5-(1-methyl-1H-imidazol-4-yl)thiophen-2-yl)-1,2,6-thiadiazinane-3,4,5-d3-3-carboxamide 1,1-dioxide] reads 1 to 5 µM.
The result for `CN1[C@@H](C(=O)Nc2ccc(F)c(Cl)c2)C[C@@H](c2ccc(-c3ncnn3C)s2)NS1(=O)=O` [HBV-CSU-323-ISO-II, Cis-N-(3-Chloro-4-fluorophenyl)-2-methyl-5-(5-(1-methyl-1H-1,2,4-triazol-5-yl)thiophen-2-yl)-1,2,6-thiadiazinane-3-carboxamide 1,1-dioxide] reads 1 to 5 µM.
Regarding `CN1C(C(=O)Nc2ccc(F)c(Cl)c2)CC(c2cc(-c3ncn(C)n3)cs2)NS1(=O)=O` (racemic) [HBV-CSU-326, Cis-N-(3-chloro-4-fluorophenyl)-2-methyl-5-(4-(1-methyl-1H-1,2,4-triazol-3-yl)thiophen-2-yl)-1,2,6-thiadiazinane-3-carboxamide 1,1-dioxide], the EC50 was less than 1 µM.
On to `CN1C(C(=O)Nc2ccc(F)c(Cl)c2)CC(c2ncc(-c3ccn(C)n3)s2)NS1(=O)=O` (racemic) [HBV-CSU-280, Cis-N-(3-Chloro-4-fluorophenyl)-2-methyl-5-(5-(1-methyl-1H-pyrazol-3-yl)thiazol-2-yl)-1,2,6-thiadiazinane-3-carboxamide 1,1-dioxide], for which the EC50 is less than 1 µM.
Under `CN1[C@@H](C(=O)Nc2ccc(F)c(Cl)c2)C[C@@H](c2ncc(-c3c[nH]cn3)s2)NS1(=O)=O` (stereo in doubt) [HBV-CSU-333-ISO-II, 5-(5-(1H-imidazol-4-yl)thiazol-2-yl)-N-(3-chloro-4-fluorophenyl)-2-methyl-1,2,6-thiadiazinane-3-carboxamide 1,1-dioxide] stands 1 to 5 µM; under `CN1[C@H](C(=O)Nc2ccc(F)c(Cl)c2)C[C@H](c2ccc(-c3ccn(C)n3)s2)NS1(=O)=O` [HBV-CSU-270-ISO-I, Cis-N-(3-Chloro-4-fluorophenyl)-2-methyl-5-(5-(1-methyl-1H-pyrazol-3-yl)thiophen-2-yl)-1,2,6-thiadiazinane-3-carboxamide 1,1-dioxide], less than 1 µM; under `[2H]C1[C@]([2H])(c2ncc(-c3cn(C([2H])([2H])[2H])cn3)s2)NS(=O)(=O)N(C)[C@]1([2H])C(=O)Nc1ccc(F)c(Cl)c1` (stereo in doubt) [HBV-CSU-341-ISO-I, Cis-N-(3-Chloro-4-fluorophenyl)-2-methyl-5-(5-(1-(methyl-d3)-1H-imidazol-4-yl)thiazol-2-yl)-1,2,6-thiadiazinane-3,4,5-d3-3-carboxamide 1,1-dioxide], less than 1 µM.
On to `C[C@@H]1C[C@H](C(=O)Nc2ccc(F)c(Cl)c2)N(C)S(=O)(=O)N1` [HBV-CSU-050-ISO-II, Cis-N-(3-chloro-4-fluorophenyl)-2,5-dimethyl-1,2,6-thiadiazinane-3-carboxamide 1,1-dioxide], for which the EC50 is greater than 5 µM.
Under `CN1[C@@H](C(=O)Nc2ccc(F)c(Cl)c2)C[C@@H](c2ccc(-c3ccn(C)n3)s2)NS1(=O)=O` [HBV-CSU-270-ISO-II, Cis-N-(3-Chloro-4-fluorophenyl)-2-methyl-5-(5-(1-methyl-1H-pyrazol-3-yl)thiophen-2-yl)-1,2,6-thiadiazinane-3-carboxamide 1,1-dioxide] stands 1 to 5 µM; under `CN1C(C(=O)Nc2ccc(F)c(Cl)c2)CC(c2ccc(C(=O)O)cc2)NS1(=O)=O` (racemic) [HBV-CSU-218, Cis-4-(5-((3-Chloro-4-fluorophenyl)carbamoyl)-6-methyl-1,1-dioxido-1,2,6-thiadiazinan-3-yl)benzoic acid], 1 to 5 µM.
The result for `COCCN1[C@@H](c2cccs2)C[C@@H](C(=O)Nc2ccc(F)c(Cl)c2)NS1(=O)=O` [HBV-CSU-044-ISO-II, Cis-N-(3-Chloro-4-fluorophenyl)-6-(2-methoxyethyl)-5-(thiophen-2-yl)-1,2,6-thiadiazinane-3-carboxamide 1,1-dioxide] reads greater than 5 µM; that for `CN1[C@H](C(=O)Nc2ccc(F)c(Cl)c2)C[C@H](c2cc(-c3ccc(C#N)c(F)c3)cs2)NS1(=O)=O` [HBV-CSU-164-ISO-I, Cis-N-(3-chloro-4-fluorophenyl)-5-(4-(4-cyano-3-fluorophenyl)thiophen-2-yl)-2-methyl-1,2,6-thiadiazinane-3-carboxamide 1,1-dioxide], less than 1 µM.
Consider `CN1C(C(=O)Nc2ccc(F)c(Cl)c2)CC(c2cc(-c3cncs3)cs2)NS1(=O)=O` (racemic) [HBV-CSU-286, Cis-N-(3-Chloro-4-fluorophenyl)-2-methyl-5-(4-(thiazol-5-yl)thiophen-2-yl)-1,2,6-thiadiazinane-3-carboxamide 1,1-dioxide], for which the EC50 was less than 1 µM.
